Results taken from ChEMBL document CHEMBL5143529, “Design, synthesis, and biological evaluation of novel (4-(1,2,4-oxadiazol-5-yl)phenyl)-2-aminoacetamide derivatives as multifunctional agents for the treatment of Alzheimer's disease” (Eur J Med Chem, 2022).
The source made the active and inactive calls. The rule behind the calls is not given here.

How the values were obtained:
[1] = Metal chelating activity assessed as Cu2+-compound complex formation by measuring reduction in maximum absorbance intensity at 20 uM incubated for 1 hr by UV-visible spectrophotometry
[2] = Toxicity in C57BL/6 mouse assessed as median lethal dose administered intragastrically for 7 days; conditions: in vivo, po, time 7 day
[3] = Inhibition of LPS-induced IL-1beta secretion in mouse BV-2 cells preincubated for 1 hr followed by LPS stimulation and measured after 24 hrs by ELISA; type: functional, cell-based
Cholinesterase [4] = molecular target: T1, Cholinesterase (Equus caballus, UniProt P81908); assay: Mixed type inhibition of equine serum BuChE assessed as inhibition constant using varying level of butyrylthiocholine iodide as substrate by Lineweaver-Burk plot double reciprocal analysis
T1 sequence (P81908 whole entry): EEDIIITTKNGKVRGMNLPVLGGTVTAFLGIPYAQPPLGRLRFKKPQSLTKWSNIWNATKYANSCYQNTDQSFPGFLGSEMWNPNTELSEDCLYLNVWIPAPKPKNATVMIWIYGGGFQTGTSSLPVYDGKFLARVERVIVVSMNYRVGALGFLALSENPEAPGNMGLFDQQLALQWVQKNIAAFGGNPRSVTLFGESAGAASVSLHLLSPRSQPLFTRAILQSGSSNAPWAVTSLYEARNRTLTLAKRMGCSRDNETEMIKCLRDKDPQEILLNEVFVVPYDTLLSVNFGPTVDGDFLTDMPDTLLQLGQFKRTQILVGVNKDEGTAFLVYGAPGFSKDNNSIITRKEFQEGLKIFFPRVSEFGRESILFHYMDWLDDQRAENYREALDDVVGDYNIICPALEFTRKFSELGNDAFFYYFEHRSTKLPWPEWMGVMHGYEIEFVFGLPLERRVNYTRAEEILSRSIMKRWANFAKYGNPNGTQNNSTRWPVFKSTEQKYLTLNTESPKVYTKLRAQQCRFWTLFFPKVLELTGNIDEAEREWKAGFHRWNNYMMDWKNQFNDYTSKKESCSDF

PC-12 [5] = assay: Inhibition of H2O2-induced ROS production in rat PC-12 cells assessed as reduction in ROS accumulation at 1 to 50 uM pretreated for 6 hrs followed by H2O2 stimulation and measured after 18 hrs by DCFH-DA staining based fluorescence assay; type: functional, cell-based; conditions: dose 1-50 µM, time 24.0 hrs
Cholinesterase [6] = molecular target: T1, Cholinesterase
Description: Inhibition of equine serum BuChE using butyrylthiocholine iodide as substrate preincubated for 20 mins followed by substrate addition and measured after 5 mins by DTNB-reagent based Ellman's method

in vitro [7] = conditions: dog, MDCK-MDR1
Description: Apparent permeability across basolateral to apical side in MDCKII-MDR1 cells at 75 uM incubated for 2 hrs

Mus musculus [8] = assay: Anti-alzheimer activity against scopolamine-induced cognitive dysfunction C57BL/6 mouse model assessed as reduction in escape latency time administered intragastrically for 7 days followed by scopolamine stimulation and measured after 4 days by Morris water maze test; type: functional, organism-based; conditions: dose 10-30 mg/kg, route ig, time 11.0 day, DDE = dose-dependent effect
Acetylcholinesterase = Acetylcholinesterase (Electrophorus electricus, UniProt O42275); assay: Inhibition of electric eel AChE using acetylthiocholine iodide as substrate preincubated for 20 mins followed by substrate addition and measured after 5 mins by DTNB-reagent based Ellman's method
Acetylcholinesterase, sequence (O42275 whole entry): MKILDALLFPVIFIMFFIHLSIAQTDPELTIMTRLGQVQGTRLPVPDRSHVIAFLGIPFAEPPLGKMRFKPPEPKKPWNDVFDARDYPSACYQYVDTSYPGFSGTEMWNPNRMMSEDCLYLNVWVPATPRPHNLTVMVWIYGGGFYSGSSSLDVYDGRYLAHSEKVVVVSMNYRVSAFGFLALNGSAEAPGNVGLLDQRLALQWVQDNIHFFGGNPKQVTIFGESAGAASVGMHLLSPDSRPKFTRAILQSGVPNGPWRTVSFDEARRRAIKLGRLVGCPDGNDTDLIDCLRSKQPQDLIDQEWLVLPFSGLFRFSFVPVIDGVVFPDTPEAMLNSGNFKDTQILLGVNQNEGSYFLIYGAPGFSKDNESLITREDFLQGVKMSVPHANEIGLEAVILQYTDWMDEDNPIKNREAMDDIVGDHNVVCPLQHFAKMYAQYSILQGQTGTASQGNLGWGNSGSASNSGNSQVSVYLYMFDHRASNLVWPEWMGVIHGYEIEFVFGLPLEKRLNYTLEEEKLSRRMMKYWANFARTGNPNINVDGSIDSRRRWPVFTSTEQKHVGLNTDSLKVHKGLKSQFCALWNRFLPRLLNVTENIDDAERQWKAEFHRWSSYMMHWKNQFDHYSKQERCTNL

cells = conditions: Mus musculus, BV-2
Description: Inhibition of NO production in LPS-induced mouse BV-2 cells pretreated for 1 hr followed by LPS stimulation and measured after 24 hrs by ELISA

[9] = molecular target: T2, Inhibitor of nuclear factor kappa-B kinase subunit beta (Mus musculus) (UniProt O88351); assay: Inhibition of IkappaB phosphorylation in LPS-stimulated mouse BV-2 cells pretreated for 1 hr followed by LPS stimulation and measured after 24 hrs by Western blot analysis; type: cell-based; conditions: dose 1-10 µM, time 25.0 hrs, DDE = dose-dependent effect
T2 sequence (whole entry): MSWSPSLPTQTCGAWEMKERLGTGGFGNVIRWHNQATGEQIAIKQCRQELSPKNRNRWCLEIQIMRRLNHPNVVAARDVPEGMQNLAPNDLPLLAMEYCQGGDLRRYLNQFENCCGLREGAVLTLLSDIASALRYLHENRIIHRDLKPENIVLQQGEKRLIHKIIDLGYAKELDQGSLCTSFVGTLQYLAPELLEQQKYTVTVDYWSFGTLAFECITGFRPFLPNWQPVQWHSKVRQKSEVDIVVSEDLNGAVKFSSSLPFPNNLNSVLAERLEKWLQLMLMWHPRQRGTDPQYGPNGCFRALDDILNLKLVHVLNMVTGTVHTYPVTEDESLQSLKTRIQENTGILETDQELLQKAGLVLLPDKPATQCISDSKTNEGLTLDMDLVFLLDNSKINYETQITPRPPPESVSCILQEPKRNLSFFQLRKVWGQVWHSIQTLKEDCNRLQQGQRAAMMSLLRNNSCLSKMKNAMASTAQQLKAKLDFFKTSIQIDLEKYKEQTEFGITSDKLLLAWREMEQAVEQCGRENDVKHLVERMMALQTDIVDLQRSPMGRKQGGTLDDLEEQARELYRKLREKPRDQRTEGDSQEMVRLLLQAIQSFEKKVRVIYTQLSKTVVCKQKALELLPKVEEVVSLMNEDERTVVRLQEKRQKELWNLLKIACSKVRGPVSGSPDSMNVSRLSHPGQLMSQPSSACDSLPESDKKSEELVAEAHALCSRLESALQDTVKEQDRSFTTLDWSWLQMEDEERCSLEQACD

[10] = Inhibition of LPS-induced TNF-alpha secretion in mouse BV-2 cells preincubated for 1 hr followed by LPS stimulation and measured after 24 hrs by ELISA; type: functional, cell-based
P-glycoprotein = assay: in vitro; conditions: dog, MDCK-MDR1
Description: Substrate activity at P-glycoprotein in MDCKII-MDR1 cells assessed as efflux ratio apparent permeability across basolateral to apical side over apical to basolateral side at 75 uM incubated for 2 hrs

[11] = molecular target: Transcription factor p65 (Mus musculus) (UniProt Q04207); assay: Inhibition of p65 phosphorylation in LPS-stimulated mouse BV-2 cells at 1 to 10 uM pretreated for 1 hr followed by LPS stimulation and measured after 24 hrs by Western blot analysis; type: cell-based; conditions: dose 1-10 µM, time 25.0 hrs
Transcription factor p65 (Mus musculus), sequence (Q04207 whole entry): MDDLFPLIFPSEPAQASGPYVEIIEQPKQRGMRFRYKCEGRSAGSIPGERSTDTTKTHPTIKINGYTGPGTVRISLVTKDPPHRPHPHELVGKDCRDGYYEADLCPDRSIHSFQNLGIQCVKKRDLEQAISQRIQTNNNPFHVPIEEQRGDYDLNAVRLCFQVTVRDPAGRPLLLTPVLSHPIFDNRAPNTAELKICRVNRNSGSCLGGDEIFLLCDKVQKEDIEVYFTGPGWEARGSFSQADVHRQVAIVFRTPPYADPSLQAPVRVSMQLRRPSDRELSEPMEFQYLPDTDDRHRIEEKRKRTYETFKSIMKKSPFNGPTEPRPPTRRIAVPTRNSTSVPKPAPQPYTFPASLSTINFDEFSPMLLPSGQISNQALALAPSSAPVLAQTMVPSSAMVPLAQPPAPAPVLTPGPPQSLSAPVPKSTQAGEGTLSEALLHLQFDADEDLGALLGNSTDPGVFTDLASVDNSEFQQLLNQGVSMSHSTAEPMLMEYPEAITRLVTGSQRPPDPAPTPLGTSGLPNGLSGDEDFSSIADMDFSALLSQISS

BV-2 [12] = assay: Inhibition of NF-kappaB in LPS-stimulated mouse BV-2 cells assessed as reduction in translocation of p65 NF-kappaB from cytoplasm to nucleus at 1 to 10 uM pretreated for 1 hr followed by LPS stimulation and measured after 24 hrs; type: cell-based; conditions: dose 1-10 µM, time 25.0 hrs
Mus musculus [13] = assay: Anti-alzheimer activity against scopolamine-induced cognitive dysfunction C57BL/6 mouse model assessed as improvement in cognitive impairment by measuring increase in number of platform crossing at 30 mg/kg, IG administered for 7 days followed by scopolamine stimulation and measured after 4 days by Morris water maze test; type: functional, organism-based; conditions: time 11.0 day
[14] = Cytotoxicity against rat PC-12 cells assessed as cell viability at 25 uM incubated for 24 hrs by MTT assay relative to control; type: toxicity, cell-based; conditions: read-out: Activity
in vitro [15] = conditions: dog, MDCK-MDR1; remark: listed apart in the source
Description: Apparent permeability across apical to basolateral side in MDCKII-MDR1 cells at 75 uM incubated for 2 hrs

[16] = molecular target: Amyloid-beta precursor protein (Homo sapiens) (UniProt P05067); assay: Inhibition of amyloid beta (1 to 42 ) (unknown origin) self aggregation at 100 uM measured after 48 hrs by transmission electron microscopic analysis
Amyloid-beta precursor protein (Homo sapiens), sequence (P05067 whole entry): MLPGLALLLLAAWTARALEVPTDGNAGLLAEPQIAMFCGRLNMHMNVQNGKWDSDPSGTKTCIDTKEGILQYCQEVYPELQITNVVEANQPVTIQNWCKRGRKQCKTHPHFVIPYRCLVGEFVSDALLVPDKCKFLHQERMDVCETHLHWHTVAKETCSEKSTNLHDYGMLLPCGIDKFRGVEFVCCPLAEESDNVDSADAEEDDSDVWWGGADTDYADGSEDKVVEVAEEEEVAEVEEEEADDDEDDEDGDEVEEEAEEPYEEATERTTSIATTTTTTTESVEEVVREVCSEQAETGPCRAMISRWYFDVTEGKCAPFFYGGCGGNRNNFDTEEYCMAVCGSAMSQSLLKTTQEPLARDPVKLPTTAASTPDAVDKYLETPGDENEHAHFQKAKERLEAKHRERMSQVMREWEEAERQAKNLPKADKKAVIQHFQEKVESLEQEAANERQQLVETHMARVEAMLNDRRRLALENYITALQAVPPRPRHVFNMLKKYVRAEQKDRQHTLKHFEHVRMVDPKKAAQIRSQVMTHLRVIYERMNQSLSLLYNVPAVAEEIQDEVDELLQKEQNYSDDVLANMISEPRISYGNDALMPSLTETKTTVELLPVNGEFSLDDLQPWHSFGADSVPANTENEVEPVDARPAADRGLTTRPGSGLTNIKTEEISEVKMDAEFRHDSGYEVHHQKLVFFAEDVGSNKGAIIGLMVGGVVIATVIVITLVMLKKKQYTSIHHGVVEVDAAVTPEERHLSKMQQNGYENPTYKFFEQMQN

[17] = Antioxidant activity assessed as DPPH radical scavenging activity at 10 uM incubated for 2 hrs under dark condition by microplate reader method relative to control; type: functional
[18] = Cytotoxicity against rat PC-12 cells assessed as cell viability at 50 uM incubated for 24 hrs by MTT assay relative to control; type: toxicity, cell-based; conditions: read-out: Activity
BV-2 [19] = assay: Downregulation of COX-2 protein expression in LPS-stimulated mouse BV-2 cells preincubated for 1 hr followed by LPS stimulation and measured after 24 hrs by Western blot analysis; type: functional, cell-based; conditions: dose 1-10 µM, time 25.0 hrs, DDE = dose-dependent effect
[20] = Toxicity in C57BL/6 mouse model of scopolamine-induced Alzheimer's disease assessed as changes in swimming speed at 10 to 30 mg/kg, IG measured after 7 days; type: organism-based; conditions: in vivo, po, 168 h, dose 10-30 mg/kg, time 7 day
[21] = Toxicity in C57BL/6 mouse assessed as abnormal fluctuations in body weight at 10 to 30 mg/kg, IG measured after 7 days; type: organism-based; conditions: in vivo, po, 168 h, dose 10-30 mg/kg, time 7 day
BV-2 [22] = assay: Downregulation of iNOS protein expression in LPS-stimulated mouse BV-2 cells preincubated for 1 hr followed by LPS stimulation and measured after 24 hrs by Western blot analysis; type: functional, cell-based; conditions: dose 1-10 µM, time 25.0 hrs, DDE = dose-dependent effect
[23] = Antioxidant activity assessed as DPPH radical scavenging activity at 1000 uM incubated for 2 hrs under dark condition by microplate reader method relative to control; type: functional
[24] = molecular target: Cholinesterase (Equus caballus) (UniProt P81908); assay: Mixed type inhibition of equine serum BuChE assessed as decrease in Vmax with increase in Km at 0.5 to 2 uM using varying level of butyrylthiocholine iodide as substrate by Lineweaver-Burk plot double reciprocal analysis; conditions: dose 0.5-2 µM
Cholinesterase (Equus caballus), sequence (P81908 whole entry): as the sequence (P81908 whole entry) above

SH-SY5Y = assay: Inhibition of H2O2-induced ROS production in human SH-SY5Y cells assessed as reduction in ROS accumulation at 1 to 50 uM pretreated for 6 hrs followed by H2O2 stimulation and measured after 18 hrs by DCFH-DA staining based fluorescence assay; type: functional, cell-based; conditions: dose 1-50 µM, time 24.0 hrs
[25] = molecular target: T2, Inhibitor of nuclear factor kappa-B kinase subunit beta (Mus musculus); assay: Inhibition of IkappaB activation in LPS-stimulated mouse BV-2 cells pretreated for 1 hr followed by LPS stimulation and measured after 24 hrs by Western blot analysis; type: cell-based; conditions: dose 1-10 µM, time 25.0 hrs, DDE = dose-dependent effect
PC-12 [26] = assay: Neuroprotective activity against H202-induced cell death in rat PC-12 cells assessed as cell viability at 5 uM pretreated for 3 hrs followed by H2O2 stimulation and measured after 24 hrs by MTT assay relative to control; type: functional; conditions: time 27 hrs, read-out: Activity
PC-12 [27] = assay: Neuroprotective activity against H202-induced cell death in rat PC-12 cells assessed as cell viability at 20 uM pretreated for 3 hrs followed by H2O2 stimulation and measured after 24 hrs by MTT assay relative to control; type: functional; conditions: time 27 hrs, read-out: Activity

O=C(CNc1ccc(F)cc1)Nc1ccc(-c2nc(-c3ccnc(Nc4ccc(OC(F)(F)F)cc4)c3)no2)cc1
Activity [1]: Active | LD50 at 168 h [2]: 75.4 mg/kg | IC50 [3]: 1610 nM | Ki (Cholinesterase [4]): 610 nM | inhibition (PC-12 [5]): Active | IC50 (Cholinesterase [6]): 1280 nM | Papp B→A at 2 h, 75 µM (in vitro [7]): 16.3 ×10⁻⁶ cm/s | Activity (Mus musculus [8]): Dde | IC50 (Acetylcholinesterase): > 50000 nM | IC50 (cells): 670 nM | inhibition [9]: Dde | IC50 [10]: 4150 nM | efflux ratio at 2 h, 75 µM (P-glycoprotein): 0.95 | inhibition [11]: Active | inhibition (BV-2 [12]): Active | Activity (Mus musculus [13]): Active | viability at 24 h, 25 µM [14]: 99.7% | Papp A→B at 2 h, 75 µM (in vitro [15]): 17.2 ×10⁻⁶ cm/s | inhibition [16]: Active | Activity [17]: 86.1% | viability at 24 h, 50 µM [18]: 98.8% | Activity (BV-2 [19]): Dde | Activity [20]: Non-Toxic | Activity [21]: Non-Toxic | Activity (BV-2 [22]): Dde | Activity [23]: 34.6% | inhibition [24]: Active | inhibition (SH-SY5Y): Active | inhibition [25]: Dde | viability at 5 µM (PC-12 [26]): 46.5% | viability at 20 µM (PC-12 [27]): 66.4%
